# Several values for one entry are separate records, joined by “and”; a condition that tells them apart may be missing. Equal values may be shown once. Read-outs that look alike come from different tables or passages of the source.
# Legend:
# [1] = in vivo
# [2] = Example 3: intestinal health scores based on Tierlynck et al. 2011 (dysbacteriosis, gross gut pathology); type: in vivo, commercial meat chickens; settings: for Ballooning (total gut) score / Contents lower intestine score / Contents upper intestine score / Hyperaemia lower intestine score / Hyperaemia upper intestine score / Tonus lower intestine score / Tonus upper intestine score / Total Intestine health score (maximum 10) / Translucency lower intestine score / Translucency upper intestine score / Undigested particles in rectum score: reference feed: Salino, or Sal Zn Bac
# From the text: […] General gut quality (looking for enteritis) was also visually assessed at that point.
# This is a scoring system aimed at quantifying the level of dysbacteriosis present in a group of birds, attributing scores for certain grossly visible abnormalities. Higher total scores (maximum 10) reflect a higher level of dysbacteriosis, although this may be compromised if coccidiosis is present. For our purposes, the intestinal scores simply reflect gross gut pathology.
# [3] = General safety in broilers reared to market weight by histology (Example 8); type: in vivo, broiler chickens; settings: histology D42
# From the text: This study evaluates the safety of IRP001 chloride in broilers through examination of histology.
# The objective of this study was to test the general safety of IRP001 chloride in broilers reared to market weight by examination of histology.
# The experiment consisted of the following treatments (1 pen per treatment, Table 54).
# Birds were kept in a pen having an area of 4×10=40 ft^2, with clean wood shavings as bedding with a thickness of approximately 4 inches. The pen had 5 feet high side walls with a bottom 1 ½ feet being of solid wood to prevent bird migration.
# The temperature of the building was monitored. Environmental conditions during the trial (temperature) were appropriate (optimum) to the age of the animals. Illumination was provided by fluorescent bulbs placed above the pens. The diets were provided ad libitum in one tube-type feeder per pen. From D0 until D7, feed was also supplied on a tray placed on the litter of each pen. Water was provided ad libitum from one Plasson drinker per pen.
# Standard floor pen management practices were used throughout the experiment. Animals and housing facilities were inspected twice daily, observing and recording the general health status, constant feed and water supply as well as temperature, removing all dead birds, and recognizing unexpected events. Birds found dead during the study were noted on the Daily Mortality Record, and were not replaced. Pen number, the date of mortality, sex, weight, and diagnosis were recorded.
# Day of hatch male Cobb chicks were obtained and ten male broiler chicks were placed in each pen. Accountabilities of all test animals and any extra birds were recorded on animal disposition form. The birds were sexed at the hatchery. The breeder flock history and vaccination record at the hatchery were recorded. Bird weights by pen were recorded on D0 and 42.
# All weights were by pen. Treatment Starter feed was fed from D0 to 21. On D21, non-consumed Starter was weighed by pen and discarded. Grower feed was issued and fed until D35. On D35, non-consumed Grower was weighed by pen and discarded. Finisher feed was fed until D42. On D42, non-consumed Finisher was weighed by pen and discarded.
# On the day of study completion (D42), five birds from each pen were humanly euthanized and upper, mid and lower gut sections plus liver lobe were collected and stored in neutral buffered formalin. Theses samples were shipped for analysis.
# [4] = system: Clostridium Perfringens (type A strain EHE-NE36); settings: for median lesion scores: relative to nil-treatment; for small intestinal lesion scores: relative to nil treatment groups
# Eimeria species = system: Eimeria species; set-up: species or system commercial meat chickens; settings: in vivo
# Clostridium Perfringens = settings: Necrotic Enteritis strain of C. perfringens
# [5] = Feed palatability, feed and water consumption and bird productivity study (Example 2): feed intake, water intake, bodyweight, FCR; type: in vivo, broiler chickens
# From the text: A follow-up study to determine the feed palatability, feed and water consumption and bird productivity following incorporation of a single formulation of IRP001 hemisulfate salt (unmasked) when offered to broiler chickens in-feed or in-water. The study explores the optimal treatment regime in terms of treatment start date.
# Phase 1: On receipt, two hundred and seventy (270) day-old commercial broiler chickens were allocated sequentially as they are received into sixteen (16) individual floor pens, each of 16 or 17 birds, on Day 0.
# Phase 2: On receipt, the ninety (90) day-old commercial broiler chickens were allocated sequentially as they are received into four (4) individual floor pens, each of 22 or 23 birds, on Day 22.
# Feed intake, water intake, weight gain and mortality were used as outcome parameters.
# Individual daily feed intake and individual daily water intake data by pen and then by treatment group were calculated for Phases 1 and 2 (and for the entire trial for the birds in Group/Pen 2, 15 and 16 that continue through both Phases) using figures for total feed and water provided each day to each pen divided by the number of birds in each pen. Where errors in weighing, feeding/watering or recording (or other unexplained losses of feed and water) had occurred means were adjusted by using the mean value for the same pen on the 1-2 days either side of the apparent error. Similarly, group mean bodyweights were calculated for Phase 1 using total weight/total no. birds for Day 0 and individual weights from Days 7, 14, 21, 28, 35 and 42. Total (individual) feed consumed was calculated per treatment and feed conversion ratios per treatment calculated using the expression: total (individual) feed/total (individual) weight gain. […]
# [6] = broilers in a production environment
# [7] = NE challenge, IVP 0.1 g/L In-water, Groups 7, 8
# [8] = NE challenge, IVP 0.2 g/kg In-feed, Group 11
# [9] = NE challenge, IVP 1.0 g/L In-water, Groups 9, 10
# [10] = NE challenge, IVP 2.0 g/kg In-feed, Group 12
# [11] = Necrotic Enteritis, IVP water 1.0 g/L, line 'Mean' of Groups 9 and 10
# [12] = Necrotic Enteritis, IVP water 1.0 g/L, per isolator, Groups 9 and 10
# [13] = Nil Challenge, IVP water 1.0 g/L, line 'Mean' of Groups 3 and 4
# [14] = Nil Challenge, IVP water 1.0 g/L, per isolator, Groups 3 and 4
# [15] = Nil challenge, IVP 1.0 g/L In-water, Groups 3, 4
compound,measurement,setting,value
"COc1ccc2cc3[n+](cc2c1OC)CCc1cc2c(cc1-3)OCO2 [IRP001 chloride, berberine chloride]",Feed per bird over period 0-14 days,[1],485^B g/bird and 513^A g/bird and 512^A g/bird
same,Feed per bird over period 0-21 days,[1],1186^B g/bird and 1227^AB g/bird and 1240^AB g/bird
same,Feed per bird over period 0-28 days,[1],1957 g/bird and 2037 g/bird and 2049 g/bird
same,Feed per bird over period 0-42 days,[1],4121 g/bird and 4247 g/bird and 4305 g/bird
same,Mean Weight Gain over period 0-7 days,[1],113 gm and 121 gm and 119 gm
same,Mean Weight Gain over period 8-14 days,[1],320^C gm and 334^A gm and 343^A gm
same,Mean Weight Gain over period 15-21 days,[1],491^B gm and 517^A gm and 528^A gm
same,Mean Weight Gain over period 22-28 days,[1],593 gm and 618 gm and 600 gm
same,Mean Weight Gain over period 29-42 days,[1],1324 gm and 1341 gm and 1436 gm
same,Mean live weight at 0 days,[1],41 gm
same,Mean live weight at 7 days,[1],160 gm
same,Mean live weight at 21 days,[1],923^C gm
same,growth rates throughout the experiment,[1],statistically similar to the control group
same,live weight to the end of the experiment (day 42),[1],remained significantly lighter than all other groups
same,mean live weight at 14 days,[1],significantly lower weights than the negative control
same,translucency score in the upper intestine and undigested feed particles in the rectum,"[2]; 21 days, higher two levels 0.3 and 0.1 g/kg, compared with controls and 0.03 g/kg",reduced translucency score in the upper intestine and the presence of undigested feed particles in the rectum
same,total intestinal health scores compared with the controls,"[2]; 28 days, 0.3 g/kg in feed, P=0.06",approached significance
same,gastrointestinal tract (GIT) histologic lesions,[3]; [6],within normal limits
same,liver histologic lesions,[3]; [6],within normal limits
same,Cumulative Pathology and Enteritis scores,[3]; versus control Treatment 1 Nil group,equal or lower than the control
same,Median Duodenal Lesion Score (0 absent to 4 severe),[4]; [7],4
same,Median Ilial Lesion Score (0 absent to 4 severe),[4]; [7],4
same,Median Jejunal Lesion Score (0 absent to 4 severe),[4]; [7],4
same,Median Duodenal Lesion Score (0 absent to 4 severe),[4]; [8],4
same,Median Ilial Lesion Score (0 absent to 4 severe),[4]; [8],4
same,Median Jejunal Lesion Score (0 absent to 4 severe),[4]; [8],4
same,Median Duodenal Lesion Score (0 absent to 4 severe),[4]; [9],1
same,Median Ilial Lesion Score (0 absent to 4 severe),[4]; [9],1
same,Median Jejunal Lesion Score (0 absent to 4 severe),[4]; [9],1
same,Median Duodenal Lesion Score (0 absent to 4 severe),[4]; [10],1
same,Median Ilial Lesion Score (0 absent to 4 severe),[4]; [10],1
same,Median Jejunal Lesion Score (0 absent to 4 severe),[4]; [10],1
same,Mortalities prior to autopsy,"[4]; Necrotic Enteritis, IVP feed 0.2 g/kg, Group 11",9
same,Mortalities prior to autopsy,"[4]; Necrotic Enteritis, IVP feed 2 g/kg, Group 12",2
same,Mortalities prior to autopsy,"[4]; Necrotic Enteritis, IVP water 0.1 g/L, per isolator, Groups 7 and 8, listed as IVP",10
same,Mortalities prior to autopsy,[4]; [11],0
same,Mortality %,[4]; [11],0%
same,Mortalities prior to autopsy,[4]; [12],0
same,Mortality %,[4]; [12],0%
same,Mortalities prior to autopsy,[4]; [13],0
same,Mortality %,[4]; [13],0%
same,Mortalities prior to autopsy,[4]; [14],0
same,Mortality %,[4]; [14],0%
same,Median Duodenal Lesion Score (0 absent to 4 severe),[4]; [15],0
same,Median Ilial Lesion Score (0 absent to 4 severe),[4]; [15],0
same,Median Jejunal Lesion Score (0 absent to 4 severe),[4]; [15],0
same,"coccidiosis lesion scores in duodenum, jejunum and total gut",Eimeria species,highest lesion scores
same,oocyst counts in faeces,Eimeria species,numerically lower than the controls
same,total gut coccidiosis lesion scores,Eimeria species,significantly reduced total gut lesion scores
"CC[C@@H](C(=O)[C@@H](C)[C@@H](O)[C@H](C)[C@@H]1O[C@@H]([C@@H](CC)C(=O)O)CC[C@@H]1C)[C@H]1O[C@]2(C=C[C@@H](O)[C@]3(CC[C@@](C)([C@H]4CC[C@](O)(CC)[C@H](C)O4)O3)O2)[C@H](C)C[C@@H]1C [salinomycin, Salinomycin]",Feed per bird over period 0-14 days,[1],497^AB g/bird
same,Feed per bird over period 0-21 days,[1],1193^B g/bird
same,Feed per bird over period 0-28 days,[1],2074 g/bird
same,Feed per bird over period 0-42 days,[1],4298 g/bird
same,Mean Weight Gain over period 0-7 days,[1],116 gm
same,Mean Weight Gain over period 8-14 days,[1],330^BC gm
same,Mean Weight Gain over period 15-21 days,[1],517^A gm
same,Mean Weight Gain over period 22-28 days,[1],645 gm
same,Mean Weight Gain over period 29-42 days,[1],1384 gm
same,Mean live weight at 0 days,[1],41 gm
same,growth rates throughout the experiment,[1],statistically similar to the control group
same,mean live weight at 14 days,[1],446^AB gm
same,Ballooning (total gut) score,[2]; Age 21 days,0.10
same,Contents lower intestine score,[2]; Age 21 days,0.45
same,Contents upper intestine score,[2]; Age 21 days,0.65
same,Hyperaemia lower intestine score,[2]; Age 21 days,0.00
same,Hyperaemia upper intestine score,[2]; Age 21 days,0.15
same,Tonus lower intestine score,[2]; Age 21 days,0.50
same,Tonus upper intestine score,[2]; Age 21 days,0.50
same,Total Intestine health score (maximum 10),[2]; Age 21 days,3.55
same,Translucency lower intestine score,[2]; Age 21 days,0.85
same,Translucency upper intestine score,[2]; Age 21 days,0.20^B
same,Undigested particles in rectum score,[2]; Age 21 days,0.15^B
same,Ballooning (total gut) score,[2]; Age 28 days,0.80
same,Contents lower intestine score,[2]; Age 28 days,0.00
same,Contents upper intestine score,[2]; Age 28 days,1.00
same,Hyperaemia lower intestine score,[2]; Age 28 days,0.20
same,Hyperaemia upper intestine score,[2]; Age 28 days,0.80
same,Tonus lower intestine score,[2]; Age 28 days,0.60
same,Tonus upper intestine score,[2]; Age 28 days,0.80
same,Total Intestine health score (maximum 10),[2]; Age 28 days,5.20
same,Translucency lower intestine score,[2]; Age 28 days,0.20
same,Translucency upper intestine score,[2]; Age 28 days,0.40
same,Undigested particles in rectum score,[2]; Age 28 days,0.40
same,"Faecal oocyst count, Log10 Mean",Eimeria species,4.72^B Log10 (Oocyst/g faeces)
same,"Faecal oocyst count, Mean",Eimeria species,"72,046 Oocyst/g faeces"
berberine hemisulfate [IRP001 sulfate],inhibition of growth at 62.5 μg/ml,Clostridium Perfringens; 62.5 μg/ml,partial inhibition of growth
same,MIC,"Clostridium Perfringens; test agent Berberine sulfate, purity 98.0%",125 µg/mL
same,bodyweight,"[5]; Phase 1+2, Pen 2 untreated vs 15/16 treated in-water Day 6-42, pair-wise comparison p<0.05",no significant difference
same,bodyweight,"[5]; Phase 1, unmasked treatment via drinking water (1.0 g per L) over varying periods",did not appear to affect
same,bodyweight,"[5]; Phase 2, treatment in-feed (2.0 g per kg of feed)",did not appear to affect
same,median lesion scores,"[4]; NE challenged broilers, 0.1 g/L in-water",no reduction in median lesion scores
same,Mortalities prior to autopsy,"[4]; NE challenged broilers, 0.1 g/L in-water, versus nil-treatment",not significantly different
same,median lesion scores,"[4]; NE challenged broilers, 0.2 g/kg in-feed",no reduction in median lesion scores
same,Mortalities prior to autopsy,"[4]; NE challenged broilers, 0.2 g/kg in-feed, versus nil-treatment",not significantly different
same,small intestinal lesion scores,"[4]; NE challenged broilers, 1.0 g/L in-water",substantial reduction in small intestinal lesion scores
same,Mortalities prior to autopsy,"[4]; NE challenged broilers, 1.0 g/L in-water, relative to nil-treatment and low-dose groups",significant reduction in mortalities
same,small intestinal lesion scores,"[4]; NE challenged broilers, 2.0 g/kg in-feed",substantial reduction in small intestinal lesion scores
same,Mortalities prior to autopsy,"[4]; NE challenged broilers, 2.0 g/kg in-feed, relative to nil-treatment and low-dose groups",significant reduction in mortalities

# From patent US12225917B2 (priority 2017, dated 2025)
